Type in all cases: biochemical
The target of one assay is T1, HDAC8 (Homo sapiens, UniProt Q9BY41).
T1 construct: TwinStrep-FLAG-HALO (N, cleaved yes); made in house; host or cells: HEK293/T17
T1 sequence (Q9BY41 1-377): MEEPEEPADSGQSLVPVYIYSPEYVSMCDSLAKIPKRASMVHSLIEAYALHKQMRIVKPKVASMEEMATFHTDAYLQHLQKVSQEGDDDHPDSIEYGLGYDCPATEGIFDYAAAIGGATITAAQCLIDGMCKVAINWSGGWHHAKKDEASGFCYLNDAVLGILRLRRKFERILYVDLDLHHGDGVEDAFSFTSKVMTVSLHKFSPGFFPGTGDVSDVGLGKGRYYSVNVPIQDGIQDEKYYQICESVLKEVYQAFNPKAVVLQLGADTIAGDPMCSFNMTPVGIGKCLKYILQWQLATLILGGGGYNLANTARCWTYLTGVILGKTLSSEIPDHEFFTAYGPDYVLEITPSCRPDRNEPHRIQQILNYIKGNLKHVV
The assay can be described thus: Fluorometric HDAC inhibition assay, HDAC8. The following applies: purified human protein; Boc-[Lys-TFA]-AMC substrate 10 μM; 15 min preincubation. On the procedure:
(§1) Large-scale expression of recombinant human HDACs was carried out as described previously.[32],[37] Briefly, HEK293/T17 cells were transiently transfected with expression pMM222 plasmids comprising N-terminally tagged (TwinStrep-FLAG-HALO tag; Figure S1) HDAC genes using linear poly(ethyleneimine) (PEI, Polysciences Inc.). Cells were harvested three days post-transfection, and cell pellets were resuspended in the lysis buffer (100 mM Tris-HCl, 10 mM NaCl, 5 mM KCl, 2 mM MgCl2, and 10% glycerol at pH 8.0). Cells were disrupted by sonication, cell lysates were cleared by centrifugation, and soluble fusion proteins were first purified by Streptactin affinity chromatography (IBA). For all HDACs but HDACs 1, 10, and 11, the N-terminal tag was cleaved off overnight by the addition of TEV protease (10:1 HDAC/TEV ratio). Size-exclusion chromatography on a Superose 6 column (GE Healthcare Bio-Sciences; running buffer 30 mM HEPES, 140 mM NaCl, 10 mM KCl, 3% glycerol, and 0.25 mM TCEP) was used as the final purification step for all HDAC constructs.
(§2) Optimized fluorometric assays were used to determine inhibition constants of studied compounds against individual HDAC isoforms as described previously.[32] Briefly, reactions were performed in the activity buffer comprising 50 mM HEPES, 140 mM NaCl, and 10 mM KCl at pH 7.4 supplemented with 1 mg mL^–1 bovine serum albumin (BSA), 1 mM tris(2-carboxyethyl)phosphine (TCEP), 10 μM substrates, and optimized concentrations of HDACs. The Ac-Gly-Ala-[Lys-Ac]-7-amino-methylcoumarylamide (AMC) substrate was used to profile HDACs 1, 2, 3, and 6; Boc-[Lys-TFA]-7-amino-methylcoumarylamide was used for HDACs 4, 5, 7, 8, and 9 (both substrates: Bachem); fluorescein-labeled N8-acetylspermidine was used for HDAC10;[32] and an internally quenched TNFα-derived peptide derivative was used for HDAC11.[39] Deacetylation reactions were monitored either by high-performance liquid chromatography (HPLC) (HDAC10) or by quantification of released AMC (λex/λem = 365/440 nm) using a CLARIOstar plate reader (BMG Labtech GmbH).

The target in the next assay is T2, HDAC6 (Homo sapiens, UniProt Q9UBN7).
T2 construct: TwinStrep-FLAG-HALO (N, cleaved yes); made in house; host or cells: HEK293/T17
T2 sequence (Q9UBN7 1-1215): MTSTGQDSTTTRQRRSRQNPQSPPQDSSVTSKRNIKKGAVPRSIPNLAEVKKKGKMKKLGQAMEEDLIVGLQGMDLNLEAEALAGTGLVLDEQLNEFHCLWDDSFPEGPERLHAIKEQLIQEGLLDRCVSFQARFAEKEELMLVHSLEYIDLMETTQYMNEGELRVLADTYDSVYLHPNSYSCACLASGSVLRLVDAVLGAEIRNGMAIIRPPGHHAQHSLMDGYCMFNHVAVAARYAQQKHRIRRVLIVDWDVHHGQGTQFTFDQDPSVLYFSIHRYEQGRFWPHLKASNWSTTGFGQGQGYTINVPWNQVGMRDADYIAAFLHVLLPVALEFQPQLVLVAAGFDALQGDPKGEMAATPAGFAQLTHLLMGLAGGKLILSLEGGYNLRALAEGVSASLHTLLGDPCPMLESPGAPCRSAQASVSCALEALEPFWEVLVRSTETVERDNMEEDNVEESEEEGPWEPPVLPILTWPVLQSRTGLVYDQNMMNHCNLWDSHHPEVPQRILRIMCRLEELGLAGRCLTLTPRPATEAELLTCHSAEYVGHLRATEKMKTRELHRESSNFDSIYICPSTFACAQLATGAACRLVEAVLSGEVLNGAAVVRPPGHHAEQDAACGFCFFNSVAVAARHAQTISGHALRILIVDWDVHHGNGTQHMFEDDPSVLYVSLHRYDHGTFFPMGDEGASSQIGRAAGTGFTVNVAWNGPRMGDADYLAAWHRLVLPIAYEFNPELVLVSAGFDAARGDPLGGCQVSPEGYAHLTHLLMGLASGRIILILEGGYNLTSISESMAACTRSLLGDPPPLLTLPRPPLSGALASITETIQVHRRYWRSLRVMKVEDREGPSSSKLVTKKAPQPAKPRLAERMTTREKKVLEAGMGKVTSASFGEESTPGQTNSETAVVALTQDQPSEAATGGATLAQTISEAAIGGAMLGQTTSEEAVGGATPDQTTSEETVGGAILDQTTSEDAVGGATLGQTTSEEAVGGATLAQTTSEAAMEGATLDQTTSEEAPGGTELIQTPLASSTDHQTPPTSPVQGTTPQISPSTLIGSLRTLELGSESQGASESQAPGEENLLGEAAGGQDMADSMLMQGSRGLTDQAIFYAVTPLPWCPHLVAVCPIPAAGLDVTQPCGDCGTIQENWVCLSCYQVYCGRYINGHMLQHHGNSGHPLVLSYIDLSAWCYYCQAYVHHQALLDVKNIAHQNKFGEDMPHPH
Briefly: Fluorometric HDAC inhibition assay, HDAC6. The following applies: for IC50: purified human protein, Ac-Gly-Ala-[Lys-Ac]-AMC substrate 10 μM, 15 min preincubation; for fold more potent compared to the hydrazide product 4: HDAC6 potency ratio. On the procedure:
as §1, §2

Another assay has as its target T3, HDAC5 (Homo sapiens, UniProt Q9UQL6).
T3 construct: TwinStrep-FLAG-HALO (N, cleaved yes); made in house; host or cells: HEK293/T17
The assay can be described thus: Fluorometric HDAC inhibition assay, HDAC5. To be noted: purified human protein; Boc-[Lys-TFA]-AMC substrate 10 μM; 15 min preincubation. On the procedure:
as §1, §2

T3 sequence (Q9UQL6 whole entry): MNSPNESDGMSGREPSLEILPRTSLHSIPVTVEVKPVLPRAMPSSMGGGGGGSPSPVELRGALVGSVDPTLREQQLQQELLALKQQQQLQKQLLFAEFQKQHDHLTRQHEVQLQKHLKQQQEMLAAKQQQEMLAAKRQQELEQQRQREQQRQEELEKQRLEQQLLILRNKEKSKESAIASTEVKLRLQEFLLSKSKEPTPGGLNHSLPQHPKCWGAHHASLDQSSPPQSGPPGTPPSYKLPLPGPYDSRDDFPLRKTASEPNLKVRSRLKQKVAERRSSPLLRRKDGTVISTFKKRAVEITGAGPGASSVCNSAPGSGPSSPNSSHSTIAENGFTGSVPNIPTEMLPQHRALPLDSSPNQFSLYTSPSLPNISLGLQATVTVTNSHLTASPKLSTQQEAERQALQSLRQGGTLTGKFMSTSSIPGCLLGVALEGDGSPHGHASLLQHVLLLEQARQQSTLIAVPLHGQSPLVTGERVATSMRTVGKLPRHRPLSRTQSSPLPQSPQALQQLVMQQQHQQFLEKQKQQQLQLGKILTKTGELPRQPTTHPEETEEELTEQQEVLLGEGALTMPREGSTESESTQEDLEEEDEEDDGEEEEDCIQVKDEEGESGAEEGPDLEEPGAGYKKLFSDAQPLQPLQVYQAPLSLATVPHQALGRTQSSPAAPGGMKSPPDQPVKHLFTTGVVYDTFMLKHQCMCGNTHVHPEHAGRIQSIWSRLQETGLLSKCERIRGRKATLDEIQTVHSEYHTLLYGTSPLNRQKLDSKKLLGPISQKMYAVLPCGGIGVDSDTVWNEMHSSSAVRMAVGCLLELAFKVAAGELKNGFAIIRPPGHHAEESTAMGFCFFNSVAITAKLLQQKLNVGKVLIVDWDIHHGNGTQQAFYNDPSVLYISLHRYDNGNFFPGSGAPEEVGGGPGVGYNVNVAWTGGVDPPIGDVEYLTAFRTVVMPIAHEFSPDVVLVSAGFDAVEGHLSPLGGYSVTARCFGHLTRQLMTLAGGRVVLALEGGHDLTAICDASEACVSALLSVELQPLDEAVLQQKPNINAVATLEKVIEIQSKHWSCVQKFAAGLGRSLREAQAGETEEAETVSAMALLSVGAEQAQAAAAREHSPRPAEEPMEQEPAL

As to `CS(=O)(=O)N(Cc1ccc(C(=O)NN)cn1)c1cccc(Cl)c1` [compound 4], the results for the IC50 on HDAC8, on HDAC6 and on HDAC5 were over 20 µM, 2.16 ± 0.392 µM and over 20 µM, respectively.
Regarding `CS(=O)(=O)N(Cc1ccc(C(=O)NNC(=O)C(F)(F)F)cn1)c1cccc(Cl)c1` [compound 5], the concentration for half-maximal inhibition (IC50) (in general, the concentration that inhibits the measured activity by half) against HDAC8 was over 20 µM; on HDAC6, 10.8 µM.
For `CS(=O)(=O)N(Cc1ccc(C(=O)NNC(=O)C(F)F)cn1)c1cccc(Cl)c1` [compound 6] the same measures were over 20 µM and 14.5 µM.
For `CS(=O)(=O)N(Cc1ccc(-c2nnc(C(F)(F)F)o2)cn1)c1cccc(Cl)c1` [compound 7], the figures for the IC50 against HDAC8, against HDAC6 and against HDAC5 were over 20 µM, 0.0146 ± 0.008 µM and over 20 µM, respectively. In addition, the “fold more potent compared to the hydrazide product 4” value on HDAC6 was about 150 fold.
For `CS(=O)(=O)N(Cc1ccc(-c2nnc(C(F)F)o2)cn1)c1cccc(Cl)c1` [compound 8], the IC50 at HDAC8 and on HDAC5 was over 20 µM in each case. Moreover, on HDAC6, the “fold more potent compared to the hydrazide product 4” value is given as “approximately 1000 fold”.

(Values after PMC10367051, “Comprehensive Mechanistic View of the Hydrolysis of Oxadiazole-Based Inhibitors by Histone Deacetylase 6 (HDAC6)” (ACS Chemical Biology, 2023).)
